{
  "source": "patent US9382245B2",
  "about": "“Compounds and methods for treating HIV infections” (priority 2013, dated 2016)",
  "key": {"[1]": {"tested_on": "IIIB strain of HIV-1 (wild-type)", "assay": "microbe, parasite or virus in culture", "assay_type": "cell-based"}, "[2]": {"assay": "Aqueous solubility, shake-flask procedure", "assay_type": "physicochemical", "description": "Poor solubility, which has been a problem for many NNRTIs, often leads too low bioavailability, difficulties in formulation, and high dosages.^6,32,33 The issue reflects the hydrophobic nature of the NNRTI binding site. In the design of the catechol diethers, attention was paid to having both good potency and aqueous solubility. In our laboratory, solubilities are measured using a shake-flask procedure.^6,34 The compounds are dissolved in Britton-Robinson buffer and stirred in vials for 48 hours at 25° C. The pH of the buffer solutions is 6.5 as measured by a Corning General Purpose pH Combination probe (4136L21)."}, "[3]": {"conditions": "Table 2, cited from earlier work"}},
  "note": "Where two headings read alike, the source gives them in different places. Marks after values point to notes of the source that are not given here.",
  "data": [
    {"smiles": "N#Cc1cc2cccc(Oc3ccc(F)cc3OCCn3ccc(=O)[nH]c3=O)n2c1", "note": "[11a, 5-(2-(2-(2,4-dioxo-3,4-dihydropyrimidin-1(2H)-yl)ethoxy)-4-fluorophenoxy)indolizine-2-carbonitrile]", "values": [
      {"measurement": "fold less active, WT", "setting": "[1]; 11a compared with its isomer 10f", "value": 6, "unit": "fold"},
      {"measurement": "CC50", "setting": "in vitro; human", "value": "> 100", "unit": "µM"}
    ]},
    {"smiles": "O=c1ccn(CCOc2ccccc2Oc2cccc3ccccc23)c(=O)[nH]1", "note": "[14a, 1-(2-(2-(naphthalen-1-yloxy)phenoxy)ethyl)pyrimidine-2,4(1H,3H)-dione]", "values": [
      {"measurement": "CC50", "setting": "human MT-2 T-cells; human", "value": 80, "unit": "µM"},
      {"measurement": "fold less active, WT", "setting": "[1]; 14a compared with 14e", "value": 100, "unit": "fold"}
    ]},
    {"smiles": "N#Cc1ccc2c(Oc3ccccc3OCCn3ccc(=O)[nH]c3=O)cccc2c1", "note": "[14e, 5-(2-(2-(2,4-dioxo-3,4-dihydropyrimidin-1(2H)-yl)ethoxy)phenoxy)-2-naphthonitrile]", "values": [
      {"measurement": "CC50", "setting": "human MT-2 T-cells; human", "value": "> 100", "unit": "µM"},
      {"measurement": "fold less soluble", "setting": "[2]; 14e compared with indolizine 10b", "value": 10, "unit": "fold"},
      {"measurement": "fold improvement in solubility", "setting": "[2]; 14e over etravirine and rilpivirine", "value": "ca. 40 fold"},
      {"measurement": "solubility at 48 h", "setting": "[2]; Britton-Robinson buffer, 25 °C, pH 6.5, aqueous buffer, thermodynamic from solid, Table 2, pH 6.5, Britton-Robinson buffer, 48 hours at 25° C., read-out: S, aqueous solubility", "value": 4.3, "unit": "µg/mL"},
      {"measurement": "CC50", "setting": "in vitro; human", "value": "> 100", "unit": "µM"}
    ]},
    {"smiles": "O=C1Nc2ccc(Cl)cc2[C@@](C#CC2CC2)(C(F)(F)F)O1", "note": "[efavirenz, reference compound]", "values": [
      {"measurement": "EC50", "setting": "[1]; Human immunodeficiency virus 1, IIIB, MT2, read-out: WT EC50", "value": 0.002, "unit": "µM"}
    ]},
    {"smiles": "Cc1cc(C#N)cc(C)c1Oc1nc(Nc2ccc(C#N)cc2)nc(N)c1Br", "note": "[etravirine]", "values": [
      {"measurement": "S, aqueous solubility", "setting": "[3]; Ref. 36", "value": "<<1^b μg/mL"}
    ]},
    {"smiles": "Cc1ccnc2c1NC(=O)c1cccnc1N2C1CC1", "note": "[nevirapine, reference compound]", "values": [
      {"measurement": "S, aqueous solubility", "setting": "[3]; Ref. 35", "value": "167^a μg/mL"},
      {"measurement": "CC50", "setting": "human MT-2 T-cells; Table 3, 50% inhibition of MT-2 cell growth", "value": "> 100", "unit": "µM"},
      {"measurement": "CC50", "setting": "human MT-2 T-cells; Table 4, 50% inhibition of MT-2 cell growth", "value": "> 100", "unit": "µM"},
      {"measurement": "CC50", "setting": "in vitro", "value": "> 100", "unit": "µM"}
    ]}
  ]
}
